# Experimental data reported in patent US8354405B2, “6-cycloamino-3-(pyrid-4-yl)imidazo[1,2-b]pyridazine derivatives, preparation thereof and therapeutic use thereof” (Sanofi, priority 2007, dated 2013).
# pIC50: −log10 of the molar value.
# Key:
# [1] = target: casein kinase 1 epsilon (CK1 epsilon) (Homo sapiens, UniProt P49674); assay: Filter-plate assay of ATP-33P for CK1 epsilon inhibitors (casein phosphorylation); format: biochemical; details: inhibition of phosphorylation of casein, ATP-33P filter-plate, ATP 10 μM
# Chain of casein kinase 1 epsilon (CK1 epsilon) (P49674 whole entry): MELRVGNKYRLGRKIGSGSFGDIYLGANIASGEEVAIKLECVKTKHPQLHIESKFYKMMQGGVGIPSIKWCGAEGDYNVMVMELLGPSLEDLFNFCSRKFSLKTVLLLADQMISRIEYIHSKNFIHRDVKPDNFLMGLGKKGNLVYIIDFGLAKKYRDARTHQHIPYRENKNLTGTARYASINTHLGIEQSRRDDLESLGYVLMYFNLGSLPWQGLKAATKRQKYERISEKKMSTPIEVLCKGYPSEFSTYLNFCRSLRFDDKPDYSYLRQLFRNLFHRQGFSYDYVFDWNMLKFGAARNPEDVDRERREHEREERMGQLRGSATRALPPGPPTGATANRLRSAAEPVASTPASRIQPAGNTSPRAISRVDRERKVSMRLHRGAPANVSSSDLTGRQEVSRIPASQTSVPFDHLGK
# Protocol: The capacity of the compounds of the invention to inhibit the phosphorylation of casein by casein kinases 1 epsilon and delta may be evaluated according to the procedure described in document US 2005/0 131 012.
# Filter-Plate Assay of ATP-^33P for the Screening of CK1 Epsilon Inhibitors:
# The effect of the compounds on inhibition of the phosphorylation of casein by the enzyme casein kinase 1 epsilon (CK1 epsilon) is measured, using a casein assay via filtration of ATP-^33P in vitro.
# Casein kinase 1 epsilon (0.58 mg/ml) is obtained via fermentation and purification processes performed according to methods that are well known to those skilled in the art, or may also be obtained from Invitrogen Corporation™ (human CK1 epsilon).
# The compounds are tested at five different concentrations so as to generate IC50 values, i.e. the concentration at which a compound is capable of inhibiting the enzymatic activity by 50%, or alternatively the percentage of inhibition at a concentration of 10 micromolar.
# “U”-bottomed Falcon plates are prepared by placing 5 μL of solutions of the compounds according to the invention at concentrations of 10, 1, 0.1, 0.01 or 0.001 μM in different wells. The solutions of the compounds according to the invention at these various concentrations are prepared by diluting in a test buffer (Tris 50 mM pH 7.5, MgCl2 […], DTT 2 mM and EGTA 1 mM) a stock solution in DMSO at a concentration of 10 mM. Next, 5 μL of dephosphorylated casein are added to a final concentration of 0.2 μg/μL, 20 μL of CK1 epsilon to a final concentration of 3 ng/μL, and 20 μL of ATP-^33P to a final concentration of 0.02 μCi/μL mixed with cold ATP (10 μM final—approximately 2×10^6 CPM per well). The final total test volume per well is equal to 50 μL.
# The “U”-bottomed Falcon® test plate mentioned above is vortexed, and then incubated at room temperature for 2 hours. After 2 hours the reaction is stopped by adding an ice-cold solution of 65 μL of cold ATP (2 mM) prepared in test buffer.
# 100 μL of the reaction mixture are then transferred from the “U”-bottomed Falcon® plate into Millipore® MAPH filter plates, preimpregnated with 25 μL of ice-cold 100% TCA.
# The Millipore MAPH filter plates are agitated gently and are left to stand at room temperature for at least 30 minutes to precipitate the proteins.
# After 30 minutes, the filter plates are sequentially washed and filtered with 2×150 μL of 20% TCA, 2×150 μL of 10% TCA and 2×150 μL of 5% TCA (6 washes in total per plate/900 μL per well).
# The plates are left to dry overnight at room temperature. Next, 40 μL of Microscint-20 Packard® scintillation liquid are added per well and the plates are closed in a leak tight manner. The radiation emitted by each well is then measured for 2 minutes in a TopCount NXT Packard® scintillation counter, in which the values of CPM/well are measured.
# The percentage inhibition of the capacity of the enzyme to phosphorylate the substrate (casein) is determined for each concentration of test compound. These inhibition data expressed as percentages are used to calculate the IC50 value for each compound compared with the controls.
# The kinetic studies determined the KM value for ATP as being 21 μM in this test system.
# human CK1 delta = target: T1, human CK1 delta (Homo sapiens, UniProt P48730); assay: FRET fluorescence test, Z'Lyte kinase assay kit, CK1 delta; format: biochemical; details: peptide SER/THR 11 2 μM, ATP 4 times KM
# T1 construct: purchased Invitrogen Corporation PV3665
# T1 sequence (P48730 whole entry): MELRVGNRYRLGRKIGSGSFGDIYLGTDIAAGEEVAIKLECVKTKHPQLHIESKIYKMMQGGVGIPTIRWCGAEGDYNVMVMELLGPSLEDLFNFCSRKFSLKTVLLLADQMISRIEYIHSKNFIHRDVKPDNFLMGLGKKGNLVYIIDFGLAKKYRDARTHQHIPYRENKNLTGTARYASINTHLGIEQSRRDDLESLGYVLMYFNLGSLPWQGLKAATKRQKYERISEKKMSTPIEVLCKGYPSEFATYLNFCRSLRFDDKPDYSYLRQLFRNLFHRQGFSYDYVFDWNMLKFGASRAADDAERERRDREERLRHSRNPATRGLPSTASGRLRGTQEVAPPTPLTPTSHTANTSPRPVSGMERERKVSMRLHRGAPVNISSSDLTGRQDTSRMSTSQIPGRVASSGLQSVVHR
# Excerpt: The capacity of the compounds of the invention to inhibit the phosphorylation of casein by the casein kinases 1 epsilon and delta may be evaluated using an FRET (Fluorescence Resonance Energy Transfer) fluorescence test with the aid of the “Z′Lyte™ kinase assay kit” (reference PV3670; Invitrogen Corporation™) according to the manufacturer's instructions.
# The casein kinases 1 used are obtained from Invitrogen Corporation (human CK1 epsilon PV3500 and human CK1 delta PV3665).
# A peptide substrate, labeled at both ends with a fluorophore-donating group (coumarin) and a fluorophore-accepting group (fluorescein) constituting an FRET system is […] in the presence of ATP by casein kinase 1 epsilon or delta in the presence of increasing concentrations of compounds of the invention.
# The mixture is treated with a site-specific protease that specifically cleaves the substrate peptide to form two fluorescent fragments having a large fluorescence emission ratio.
# The fluorescence observed is thus related to the capacity of the products of the invention to inhibit the phosphorylation of the substrate peptide by casein kinase 1 epsilon or casein kinase 1 delta.
# The compounds of the invention are dissolved at different concentrations starting with a 10 mM stock solution in DMSO diluted in a buffer containing 50 mM HEPS, pH 7.5, 1 mM EGTA, 0.01% Brij-35, 10 mM MgCl2 for casein kinase 1 epsilon and supplemented with Trizma Base (50 mM), pH 8.0 and NaN3 (0.01% final) for casein kinase 1 delta.
# The phosphorylation of the substrate peptide SER/THR 11 obtained from Invitrogen Corporation™ is performed at a final concentration of 2 μM. The ATP concentration is 4 times the KM, this value being 2 μM for casein kinase 1 epsilon and 4 μM for casein kinase 1 delta.
# The emitted fluorescence is measured at wavelengths of 445 and 520 nm (excitation at 400 nm).
# [2] = tested on: Mper1-luc Rat-1 (P2C4) fibroblasts; assay: Circadian cell assay (mPer1-luciferase reporter, period prolongation); format: cell-based; details: effective concentration that induces a 1-hour prolongation of the circadian period
# Protocol: Experimental Protocols for Circadian Cell Assay
# Mper1-luc Rat-1 (P2C4) fibroblast cultures were prepared by dividing the cultures every 3-4 days (about 10-20% of confluence) on 150 cm^2 degassed polystyrene tissue culture flasks (Falcon® #35-5001) and maintained in growth medium [EMEM (Cellgro #10-010-CV); 10% fetal bovine serum (FBS; Gibco #16000-044); and 50 I.U./mL of penicillin-streptomycin (Cellgro #30-001-CI)] at 37° C. and under 5% CO2.
# Cells obtained from Rat-1 fibroblast cultures at 30-50% of confluence as described above were co-transfected with vectors containing the selection marker for resistance to zeocin for a stable transfection and a luciferase reporter gene directed by the promoter mPer-1. After 24 to 48 hours, the cultures were divided on 96-well plates and maintained in growth medium supplemented with 50-100 μg/mL of zeocin (Invitrogen® #45-0430) for 10-14 days. The zeocin-resistant stable transfectants were evaluated for expression of the reporter by adding to the growth medium luciferin 100 μM (Promega® #E1603®) and by assaying the luciferase activity on a TopCount® scintillation counter (Packard model #C384V00). The Rat-1 cell clones expressing both zeocin resistance and luciferase activity directed by mPer1 were serum-shock synchronized with 50% horse serum [HS (Gibco® #16050-122)] and the activity of the circadian reporter was evaluated. The P2C4 clone of fibroblasts Mper1-luc Rat-1 was selected to test the compound.
# The Mper1-luc Rat-1 (P2C4) fibroblasts at 40-50% of confluence obtained according to the protocol described above were plated out onto 96-well opaque tissue culture plates (Perkin Elmer® #6005680). The cultures are maintained in growth medium supplemented with 100 μg/mL of zeocin (Invitrogen #45-0430) until they reached 100% of confluence (48-72 hours). The cultures were then synchronized with 100 μL of synchronization medium [EMEM (Cellgro #10-010-CV); 100 I.U./mL of penicillin-streptomycin (Cellgro #30-001-C1); 50% HS (Gibco #16050-122)] for 2 hours at 37° C. and under 5% CO2. After synchronization, the cultures were rinsed with 100 μL of EMEM (Cellgro #10-010-CV) for 10 minutes at room temperature. After rinsing, the medium is replaced with 300 μL of CO2-independent medium [CO2I (Gibco #18045-088); L-glutamine 2 mM (Cellgro #25-005-C1); 100 U.I./mL of penicillin-streptomycin (Cellgro #30-001-C1); luciferin 100 μM (Promega #E 1603)]. […]
# The two methods produced a virtually identical period estimation on a range of circadian periods. […] The data were analyzed by adjusting a hyperbolic curve to the data expressed as change of period (y-axis) as a function of the concentration of the test compound (x-axis) in the XLfit™ software and the CE Delta (t+1 h) was interpolated from this curve.
Compound,pIC50 [1],pIC50 (human CK1 delta),CE Delta (t + 1 h) [2] [nM],melting point [°C]
"c1ccc(-c2nc3ccc(N4CCNCC4)nn3c2-c2ccncc2)cc1 [Compound 1, 2-Phenyl-6-piperazin-1-yl-3-pyrid-4-ylimidazo[1,2-b]pyridazine]",8.52,,,
"Cc1c(N2CCNCC2)nn2c(-c3ccncc3)c(-c3ccc(F)cc3)nc2c1C [Compound 3, 2-(4-Fluorophenyl)-7,8-dimethyl-6-piperazin-1-yl-3-pyrid-4-ylimidazo[1,2-b]pyridazine]",9.00,,,
"Cc1cc(C)cc(-c2nc3ccc(N4CCNC(C)(C)C4)nn3c2-c2ccnc(N)c2)c1 [Compound 30, 4-[2-(3,5-Dimethylphenyl)-6-(3,3-dimethylpiperazin-1-yl)imidazo[1,2-b]pyridazin-3-yl]pyrid-2-ylamine]",7.22,,,
"CC1(C)CN(c2ccc3nc(-c4cc(F)cc(F)c4)c(-c4ccncc4)n3n2)CCN1 [Compound 31, 2-(3,5-Difluorophenyl)-6-(3,3-dimethylpiperazin-1-yl)-3-pyrid-4-ylimidazo[1,2-b]pyridazine]",,7.03 to 7.04,,
"CN1CCN(c2ccc3nc(-c4ccc(F)cc4)c(-c4ccncc4)n3n2)CC1 [Compound 50, 2-(4-Fluorophenyl)-6-(4-methylpiperazin-1-yl)-3-pyrid-4-ylimidazo[1,2-b]pyridazine]",,8.30,28,
"CC(C)N1CCN(c2ccc3nc(-c4ccc(Cl)cc4)c(-c4ccnc(N)c4)n3n2)CC1 [Compound 81, 4-[2-(4-Chlorophenyl)-6-(4-isopropylpiperazin-1-yl)imidazo[1,2-b]pyridazin-3-yl]pyrid-2-ylamine]",,6.96 to 7.23,,236 to 239
"Fc1ccc(-c2nc3ccc(N4CC5CN(C6CC6)CC5C4)nn3c2-c2ccncc2)cc1 (stereo not shown) [Compound 115, 6-(5-Cyclopropylhexahydropyrrolo[3,4-c]pyrrol-2(1H)-yl)-2-(4-fluorophenyl)-3-pyrid-4-ylimidazo[1,2-b]pyridazine]",,,2,204 to 206
"CN(C)C1CCN(c2ccc3nc(-c4ccc(F)cc4)c(-c4ccncc4)n3n2)CC1 [Compound 146, {1-[2-(4-Fluorophenyl)-3-pyrid-4-ylimidazo[1,2-b]pyridazin-6-yl]piperid-4-yl}dimethylamine]",,,39,193 to 195
"c1ccc(-c2nc3ccc(N4CCC(N5CCCC5)CC4)nn3c2-c2ccncc2)cc1 [Compound 147, 2-Phenyl-3-pyrid-4-yl-6-(4-pyrrolidin-1-ylpiperid-1-yl)-imidazo[1,2-b]pyridazine]",6.94 to 7.66,7.28 to 7.30,,
"{4-[2-(4-Fluorophenyl)-6-((R)-3-methylpiperazin-1-yl)imidazo[1,2-b]pyridazin-3-yl]pyrid-2-yl}methylamine [Compound 153]",8.10,,2 to 9,
